Measurements reported in US10653797B2, “Compounds and compositions for targeting brain injuries and methods of use thereof” (SANFORD BURNHAM PREBYS MEDICAL DISCOVERY INSTITUTE, priority 2015, dated 2020).
Residues, ends and D or L forms follow the SMILES beside them. FAM = fluoresceinamine label

What was measured:
fluid percussion injury = settings: intracerebroventricular administration after fluid percussion injury in rats; cited from earlier work
Tenascin-R = biological target: T1, Tenascin-R (Mus musculus, UniProt Q8BYI9); assay: Peptide affinity chromatography and mass spectrometry of PBI brain extract; type: binding; settings: mouse PBI brain lysate 6 hrs after injury, eluted with 2 mM free CAQK; mean of three technical replicates
T1 construct: from tissue; host or cells: mouse brain, 6 h after penetrating brain injury (detergent lysate)
T1 sequence (Q8BYI9 32-1358): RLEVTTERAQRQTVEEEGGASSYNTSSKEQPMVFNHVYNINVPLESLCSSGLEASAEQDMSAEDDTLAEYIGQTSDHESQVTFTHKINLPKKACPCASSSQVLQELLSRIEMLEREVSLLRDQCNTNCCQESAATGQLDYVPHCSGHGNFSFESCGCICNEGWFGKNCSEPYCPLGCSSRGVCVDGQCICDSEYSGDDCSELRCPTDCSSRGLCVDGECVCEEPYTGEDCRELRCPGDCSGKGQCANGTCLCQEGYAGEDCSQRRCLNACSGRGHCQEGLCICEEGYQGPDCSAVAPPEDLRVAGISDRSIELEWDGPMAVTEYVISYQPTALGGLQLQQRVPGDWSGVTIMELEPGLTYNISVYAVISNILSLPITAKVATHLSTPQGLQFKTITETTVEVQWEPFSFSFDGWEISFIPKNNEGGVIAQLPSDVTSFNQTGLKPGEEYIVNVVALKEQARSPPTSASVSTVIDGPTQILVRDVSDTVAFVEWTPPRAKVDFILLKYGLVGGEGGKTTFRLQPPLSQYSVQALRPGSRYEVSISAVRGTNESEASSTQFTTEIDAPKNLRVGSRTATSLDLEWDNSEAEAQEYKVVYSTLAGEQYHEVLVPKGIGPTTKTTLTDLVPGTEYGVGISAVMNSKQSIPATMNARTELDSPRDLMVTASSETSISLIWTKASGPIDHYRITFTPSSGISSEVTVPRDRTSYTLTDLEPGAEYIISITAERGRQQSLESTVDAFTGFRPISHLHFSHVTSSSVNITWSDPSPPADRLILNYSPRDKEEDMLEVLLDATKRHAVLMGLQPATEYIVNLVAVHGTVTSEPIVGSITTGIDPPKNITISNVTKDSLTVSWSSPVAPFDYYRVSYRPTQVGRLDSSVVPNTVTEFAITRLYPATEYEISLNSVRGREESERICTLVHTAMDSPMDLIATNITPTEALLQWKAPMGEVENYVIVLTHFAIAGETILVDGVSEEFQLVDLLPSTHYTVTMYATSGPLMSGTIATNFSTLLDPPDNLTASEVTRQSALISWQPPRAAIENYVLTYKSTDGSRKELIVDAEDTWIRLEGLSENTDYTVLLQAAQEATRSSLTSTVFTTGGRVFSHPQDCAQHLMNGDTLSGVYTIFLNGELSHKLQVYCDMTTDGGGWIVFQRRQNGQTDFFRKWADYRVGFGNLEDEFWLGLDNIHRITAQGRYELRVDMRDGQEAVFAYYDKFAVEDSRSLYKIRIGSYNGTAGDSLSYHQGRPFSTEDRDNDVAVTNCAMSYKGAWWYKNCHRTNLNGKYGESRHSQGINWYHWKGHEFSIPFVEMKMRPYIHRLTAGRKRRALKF
Experimental: For identifying CAQK binding proteins, mouse brains with brain injury were collected 6 hrs after injury. Using liquid nitrogen, the brains were crushed and ground into powder using a mortar and pestle. Next, brain tissue was lysed in PBS containing 200 mM n-octyl-beta-D-glucopyranoside and protease inhibitor cocktail (Roche) as described (Teesalu et al., PNAS 16157-16162 (2009)). The cleared lysate was loaded on to CAQK or control peptide (CGGK) coated Sulfolink-agarose beads (Pierce, Waltham, Mass.) and incubated at 4° C. for 3-4 hrs. The column was washed with wash buffer (75 mM octyl-beta-D-glucopyranoside and protease inhibitor cocktail in PBS) followed by washing with 0.5 mM control peptide in wash buffer to remove nonspecifically bound proteins. The bound proteins were eluted with 2 mM free CAQK peptide. The eluted factions were pooled, their protein concentration determined by using bicinchoninic acid (BCA) protein assay (Thermo Fischer) and the samples were digested using the Filter-aided Sample Preparation (FASP) method (Wisniewski et al., Nat Methods 6:359-362 (2009)). Finally, the digested samples were desalted, dried, and subjected to LC-MS/MS analysis at the Proteomics Core facility of the Sanford Burnham Prebys Medical Discovery Institute. All mass spectra were analyzed with MaxQuant software version 1.5.0.25. […] Empty column denotes protein was not detected.

[1] = test system: penetrating brain injury (PBI); type: in vivo, mouse; settings: for Homing to the injured brain (FAM fluorescence, immunohistochemical staining): i.v. 6 hours after PBI, 30 minutes circulation; for Peptide signal in injured brain 3 hours after injection (retention): mouse, in vivo
Experimental: All animal experiments were conducted under an approved protocol of the Institutional Animal Care and Use Committee of Sanford Burnham Prebys Medical Discovery Institute. Eight to ten week old male BL6 mice were anesthetized with 4% isoflurane (Aerrane; Baxter, UK) in 70% N2O and 30% O2 and positioned in a stereotaxic frame. Using a head restraint, a 5-mm craniotomy was made using a portable drill and a trephine over the right parietotemporal cortex and the bone flap was removed. Penetrating brain injury model was used as described (Kielian et al., J. Immunol. 166:4634-4643 (2001); Kielian, J. Neuroinflammation 1:16 (2004)). Nine needle punctures using a 21 G needle were made 3 mm deep according to a 3×3 grid, spaced 1 mm in width and 1 mm in height. For traumatic brain injury, a Controlled Cortical Impact (CCI) model was used as described (Krajewska et al., PLoS One 6:e24341 (2011)). Mice were subjected to CCI using the benchmark stereotaxic impactor (Impact One™; myNeuroLab.com) with the actuator part mounted directly on the stereotaxic instrument. The impactor (3 mm in diameter) tip accelerated down to the 1.0 mm distance, reaching the preset velocity of 3 m/s, and the applied electromagnetic force remained there for the dwell time of 85 ms, and then retracted automatically. The contact sensor indicated the exact point of contact for reproducible results. In both models, facemask anesthesia (1-2% isoflurane in 70%/30% nitrous oxide/oxygen) was used during the entire procedure and afterwards, the scalp was closed with sutures, anesthesia discontinued, and mice were administered buprenorphine i.p. for pain control. For the first 2 hours after injury, mice were closely monitored in their cages.
CLARITY was performed on freshly-extracted brain tissues as described (Chung et al., Nature 497:332-337 (2013)). Briefly, mice were intravenously injected with FAM-labeled peptides 6 hours after brain injury. After 30-minute circulation, mice were intracardially perfused with PBS and hydrogel solution (Acrylamide (4%), bis (0.05%), VA-044 Initiator (0.25%), paraformaldehyde 4% in PBS). Following perfusion, the tissues were incubated in the hydrogel solution at 4° C. for 2-3 days. At UCSD Neuroscience Core and Light Microscopy Facility the tissues were then degased with nitrogen and incubated at 37° C. for 3-4 hours for polymerization. Samples were then passively cleared in 4% SDS solution for around 4 weeks until the tissue became transparent. Finally, the samples were washed in PBS-T for 2 days and incubated in gradient glycerol solutions: 30, 50 and 80%, about 1 day each and stored in 80% glycerol at room temperature until imaged on a confocal microscope (Leica SP5).
Animals were intravenously injected, six hours after injury, with 50 nmoles of peptide dissolved in PBS, and allowed to circulate for 30 minutes. Mice were perfused intracardially with saline and organs were isolated and imaged using the Illumatool Bright Light System LT-9900 (Lightools Research). Brains and organs were placed in 4% PFA at pH 7.4 overnight, washed with PBS and placed in graded sucrose solutions overnight before OCT embedding. 10 μm thick sections were cut and analyzed by immunofluorescence. For a complete histological analysis, sections were stained with the Movat pentachrome kit (American Mastertech Inc.) following the manufacturer's instructions.
Frozen sections were permeabilized using PBS-Triton (0.2%), blocking was carried out using 5% blocking buffer: 5% BSA, 1% goat serum, 1% donkey serum in PBS-T. Primary antibodies were incubated in diluted (1%) blocking buffer overnight at dilutions 1/100 or 1/200 at 4° C., washed with PBS-T and incubated with secondary antibodies diluted 1/200 or 1/500 in 1% diluted buffer for one hour at room temperature, subsequently washed with PBS-T, counterstained with DAPI 1 μg/mL in PBS for five minutes, washed with PBS, mounted using mounting media (Vector Biolabs), and imaged on a confocal microscope (Zeiss LSM-710). […]

## CN1CC[C@H](c2c(O)cc(O)c3c(=O)cc(-c4ccccc4Cl)oc23)[C@H](O)C1 [flavopiridol]
Fluid percussion injury
  Reduction of lesion volume: approximately 70%

## CGGK ({FAM}-CGGK-NH2) [control peptide of the same length and overall charge as CAQK, immobilized on Sulfolink-agarose beads]
Tenascin-R
  Log2 LFQ intensity, Tenascin-R (TNR) in column eluate: 24.14

## FAM-CGGK: FAM-labeled control peptide (CGGK) of the same length and overall charge as CAQK ({FAM}-CGGK-NH2)
[1]
  Homing to the injured brain (FAM fluorescence, immunohistochemical staining): minimal fluorescent signal
  Peptide signal in injured brain 3 hours after injection (retention): completely washed out

## C[C@H](NC(=O)[C@@H](N)CS)C(=O)N[C@@H](CCC(N)=O)C(=O)N[C@@H](CCCCN)C(N)=O [CAQK] (H-CAQK-NH2)
[1]
  Peptide signal in injured brain 3 hours after injection (retention): visible

## FAM-CAQK: chemically synthesized fluoresceinamine (FAM)-labeled CAQK peptide ({FAM}-CAQK-NH2)
[1]
  Homing to the injured brain (FAM fluorescence, immunohistochemical staining): selective homing to the injured brain
[1]; i.v. 6 hours after injury, 30-minute circulation
  FAM signal in clarified whole brain (CLARITY): restricted to the injured quadrant of the brain
[1]; immunofluorescence of PBI brain sections
  Co-localization and cellular localization of i.v. injected peptide signal in injured brain: prominently accumulated at mature oligodendrocytes
